Measured values as given in patent US20230233736A1, “ANTIMICROBIAL FORMULATIONS COMPRISING SILICONE” (AMICOAT AS, priority 2020, published 2023).
In brackets after ≈: the same amount, converted by molar mass. Where a SMILES comes first, the peptide text is derived from it. The star is where a group is joined. NHPhenethyl = c1ccc(CCN*)cc1

Key:
trypsin = experiment: in vitro; assay type: in vitro ADME; settings: pH 8.6
Method: Each peptide was dissolved in a 0.1 M NH4HCO3 buffer (pH 6.5) to yield a final peptide concentration of 1 mg/ml. A trypsin solution was prepared by dissolving 1 mg of trypsin in 50 ml 0.1 M NH4HCO3 buffer (pH 8.2). For the stability determination, 250 μl freshly made trypsin solution and 250 μl peptide solution were incubated in 2 ml of 0.1 M NH4HCO3 buffer (pH 8.6) at 37° C. on a rocking table. Aliquots of 0.5 ml were sampled at different time intervals, diluted with 0.5 ml water:acetonitrile (60:40 v/v) containing 1% TFA and analysed by RP-HPLC as described above. Samples without trypsin addition taken at 0 h and after 20 h at 37° C. were used as negative controls. Integration of the peak area at 254 nm for samples taken during the first 5 hours of the assay was used to generate the […].

C. albicans = experiment: Antimicrobial assay, Table 5; assay type: cell-based
S. pyogenes = experiment: Antimicrobial assay, Table 5; assay type: cell-based
[1] = tested on: Staphylococcus aureus, strain ATCC 25923; settings: for S. aureus: Table 5, strain ATCC 25923; for MIC: S. aureus ATCC 25923
[2] = tested on: Methicillin resistant Staphylococcus aureus (MRSA) strain ATCC 33591; settings: for MRSA: Table 5, strain ATCC 33591; for MIC: MRSA ATCC 33591
[3] = tested on: Methicillin resistant Staphylococcus epidermidis (MRSE) strain ATCC 27626; settings: for MRSE: Table 5, strain ATCC 27626; for MIC: MRSE ATCC 27626
Candida tropicalis = experiment: MIC microbroth dilution (CLSI); assay type: cell-based; settings: ATCC750 - reference strain
Aspergillus niger = experiment: MIC microbroth dilution (CLSI); assay type: cell-based; settings: G.R. Micro collection
[4] = tested on: Trichophyton mentagrophytes; experiment: MIC microbroth dilution (CLSI); assay type: cell-based; settings: G.R. Micro collection
[5] = tested on: Trichophyton interdigitale; experiment: MIC microbroth dilution (CLSI); assay type: cell-based; settings: G.R. Micro collection
Microsporum canis = experiment: MIC microbroth dilution (CLSI); assay type: cell-based; settings: G.R. Micro collection
Cryptococcus neoformans = experiment: MIC microbroth dilution (CLSI); assay type: cell-based; settings: G.R. Micro collection
Enterococcus gallinarum = experiment: MIC microbroth dilution (CLSI); assay type: cell-based; settings: vancomycin-resistant (VanC) clinical isolate
Excerpt: (§1) Cation-adjusted Mueller-Hinton broth (Oxoid Ltd., Basingstoke, UK and Trek Diagnostic Systems Ltd., East Grinstead, UK) (supplemented with 5% laked horse blood for Streptococcus spp., Corynebacterium jeikeium and Listeria monocytogenes) was used for aerobic bacteria, with an initial inoculum of approximately 10^5 colony-forming units (CFU)/m L.

Listeria monocytogenes = experiment: MIC microbroth dilution (CLSI); assay type: cell-based; settings: antibiotic-susceptible clinical isolate
Excerpt: as §1

Salmonella sp = experiment: MIC microbroth dilution (CLSI); assay type: cell-based
Excerpt: as §1

Shigella sp = experiment: MIC microbroth dilution (CLSI); assay type: cell-based; settings: antibiotic-susceptible clinical isolate
Excerpt: as §1

[6] = tested on: Staphylococcus saprophyticus; experiment: MIC microbroth dilution (CLSI); assay type: cell-based; settings: antibiotic susceptible clinical isolate
Excerpt: as §1

[7] = tested on: Stenotrophomonas maltophilia; experiment: MIC microbroth dilution (CLSI); assay type: cell-based; settings: antibiotic-susceptible clinical isolate
Excerpt: as §1

Acinetobacter baumanii = experiment: MIC microbroth dilution (CLSI); assay type: cell-based; set-up: unit not given beside the values; settings: antibiotic-susceptible clinical isolate
Excerpt: as §1

Streptococcus pyogenes = assay type: cell-based; settings: Macrolide (M-type) resistance clinical isolate
Excerpt: as §1

Clostridium difficile = experiment: MIC microbroth dilution (CLSI); assay type: cell-based; set-up: unit not given beside the values; settings: antibiotic-susceptible clinical isolate
Bacteroides fragilis = experiment: MIC microbroth dilution (CLSI); assay type: cell-based; set-up: unit not given beside the values; settings: ATCC 25285; SBB
Eggerthella lenta = experiment: MIC microbroth dilution (CLSI); assay type: cell-based; set-up: unit not given beside the values; settings: ATCC 43055; SBB
E. coli = experiment: Antimicrobial assay, Table 5; assay type: cell-based
P. aeruginosa = experiment: Antimicrobial assay, Table 5; assay type: cell-based

Compound | C. albicans (C. albicans) [mg/L] | S. pyogenes (S. pyogenes) [mg/L] | S. aureus [1] [mg/L] | MRSA [2] [mg/L] | MRSE [3] [mg/L] | MIC [2] [µM] | MIC [3] [µM] | also measured
N=C(N)NCCC[C@H](NC(=O)C(Cc1ccc(-c2cccc3ccccc23)cc1)NC(=O)[C@@H](N)CCCNC(=N)N)C(=O)NCCc1ccccc1 (stereo partly shown) [Compound 3] | – | – | – | – | – | – | – | half-life at 0.1 mg/ml (trypsin): 20 h
CC(C)CNC(=O)[C@H](CCCNC(=N)N)NC(=O)[C@H](Cc1c(C(C)(C)C)[nH]c2c(C(C)(C)C)cc(C(C)(C)C)cc12)NC(=O)[C@@H](N)CCCNC(=N)N [Compound 12] | 10 | 2 | <2 | 3 | 2 | – | – | –
CC(C)(C)c1cc(C(C)(C)C)c2[nH]c(C(C)(C)C)c(C[C@H](NC(=O)[C@@H](N)CCCCN)C(=O)N[C@@H](CCCCN)C(=O)NCCc3ccccc3)c2c1 [Compound 4] | – | – | – | – | – | 3 (≈ 2.2 µg/mL) | <2 | half-life at 0.1 mg/ml (trypsin): > 24 h
N=C(N)NCCC[C@H](NC(=O)[C@H](Cc1c[nH]c2ccccc12)NC(=O)[C@@H](N)CCCNC(=N)N)C(=O)NCCc1ccccc1 [Compound 6, reference compound] (H-Arg-Trp-Arg-NHPhenethyl) | – | – | – | – | – | 97 (≈ 60.1 µg/mL) | 81 (≈ 50.2 µg/mL) | MIC [1]: 145 µM (≈ 89.9 µg/mL)
CCCNC(=O)[C@H](CCCNC(=N)N)NC(=O)[C@H](Cc1c(C(C)(C)C)[nH]c2c(C(C)(C)C)cc(C(C)(C)C)cc12)NC(=O)[C@@H](N)CCCNC(=N)N [Compound 10] | 10 | 2 | 2 | 3 | <2 | – | – | –
CCCCNC(=O)[C@H](CCCNC(=N)N)NC(=O)[C@H](Cc1c(C(C)(C)C)[nH]c2c(C(C)(C)C)cc(C(C)(C)C)cc12)NC(=O)[C@@H](N)CCCNC(=N)N [Compound 9] | 10 | 2 | 2 | 3 | <2 | – | – | –
N=C(N)NCCC[C@H](NC(=O)C(Cc1ccc(-c2ccc(-c3ccccc3)cc2)cc1)NC(=O)[C@@H](N)CCCNC(=N)N)C(=O)NCCc1ccccc1 (stereo partly shown) [Compound 5] | – | – | – | – | – | 3 (≈ 2.2 µg/mL) | 3 (≈ 2.2 µg/mL) | half-life at 0.1 mg/ml (trypsin): > 24 h; MIC [1]: 5 µM (≈ 3.66 µg/mL)
CC(C)(C)c1cc(C(C)(C)C)c2[nH]c(C(C)(C)C)c(C[C@H](NC(=O)[C@@H](N)CCCNC(=N)N)C(=O)N[C@@H](CCCNC(=N)N)C(=O)NC3CCCC3)c2c1 [Compound 14] | 10 | 2 | <2 | >15 | <2 | – | – | –
N=C(N)NCCCC(N)C(=O)NC(Cc1ccc(-c2ccc3ccccc3c2)cc1)C(=O)NC(CCCNC(=N)N)C(=O)NCCc1ccccc1 (stereo not shown) [Compound 1] | – | – | – | – | – | <3 | <3 | MIC (Candida tropicalis): 2; MIC (Aspergillus niger): 4; MIC [4]: 16; MIC [5]: 8; MIC (Microsporum canis): 8; MIC (Cryptococcus neoformans): 4; MIC (Enterococcus gallinarum): 4; MIC (Listeria monocytogenes): 32; MIC (Salmonella sp; antibiotic-susceptible clinical isolate): 16; MIC (Salmonella sp; multi-drug resistant clinical isolate): 16; MIC (Shigella sp): 32; MIC [6]: 1; MIC [7]: 64; MIC (Acinetobacter baumanii): 64; MIC (Streptococcus pyogenes): 32; MIC (Clostridium difficile): 32; MIC (Bacteroides fragilis): 64; MIC (Eggerthella lenta): 16; MIC [1]: 4 µM (≈ 2.83 µg/mL)
CC(C)(C)c1cc(C(C)(C)C)c2[nH]c(C(C)(C)C)c(C[C@H](NC(=O)[C@@H](N)CCCNC(=N)N)C(=O)N[C@@H](CCCNC(=N)N)C(=O)NC3CCCCC3)c2c1 [Compound 13] | 10 | <2 | <2 | 2 | 2 | – | – | –
CCCCCCCCCCCCCCCCNC(=O)[C@H](CCCNC(=N)N)NC(=O)[C@H](Cc1c(C(C)(C)C)[nH]c2c(C(C)(C)C)cc(C(C)(C)C)cc12)NC(=O)[C@@H](N)CCCNC(=N)N [Compound 11] | >100 | 6 | 5 | 4 | 4 | – | – | E. coli (E. coli): >100 mg/L; P. aeruginosa (P. aeruginosa): >100 mg/L
